In patent US11911358B2, “Dicarboxylic acid esters for inducing an analgesic effect” (NEW FRONTIER LABS, LLC, priority 2020, dated 2024):

How the values were obtained:
EpiDerm tissues [1] = assay: EpiDerm bioassay: cytokine, chemokine and growth factor levels by multiplexed immunoassay after croton oil insult; assay type: cell-based, human; settings: 24 hours; for G-CSF, percentage of the control / GM-CSF, percentage of the control / IL-1ra, percentage of the control / IL-10, percentage of the control / IL-13, percentage of the control / Leptin, percentage of the control / PGE2, percentage of the control / IL-4, percentage of the control: EpiDerm + 0.1% croton oil, percent difference vs croton oil alone; for IL-4, percentage of the control: 25% azelaic acid Na salt, 1% salicylic acid Na salt, 1% green tea extract, 1 μg/mL doxycycline hyclate (doxorubicin), 1% 4-ethoxybenzaldehyde, 0.025% all-trans retinoic acid
Method: Multiplexed immunoassays: […] Izbicka, et al., Cancer Genomics Proteomics (2012) 9(1):27-35]. Multiplexed immunoassays were performed using Luminex 100 IS System (Luminex Corporation, Austin, TX). Analyte concentrations were calculated from the standard curves using Bio-Plex Manager 4.1.1 (Bio-Rad Laboratories, Hercules, CA). EpiDerm Bioassays: The EpiDermTM 3-Dimensional Skin Model was purchased from MatTek Corporation (Ashland, MA). […] Conditioned media were collected, the remaining cells were homogenized on ice in the presence of protease and phosphatase inhibitors, and the lysates were clarified by centrifugation. The media and cell lysates were snap frozen at -70° C. Proteins were resolved by gel electrophoresis and visualized in immunoblots with human-specific antibodies to inducible nitric oxide synthase (iNOS), S-nitrosocysteine, and superoxide dismutase 2 (all from Abcam, Cambridge, MA). […] Croton oil (a chemical irritant) was used as a control. The results are shown as percent difference in marker levels in tissues treated with the test articles and those treated with croton oil alone. (Table 1). […] This pattern of tandem upregulation of examined markers in concert with downregulation of PGE2 was unique for DEA and was not observed with any other test article.

human PBMCs = assay type: cell-based; settings: 0.5% DEA, confocal microscopy (FIG. 3)
EpiDerm tissues [2] = assay: EpiDerm croton oil irritant toxicity: proliferation and viability assays, microscopic inspection; assay type: cell-based, human; settings: 25% DEA, 0.1% croton oil
Method: Cell proliferation and cytotoxicity assays: CellTiter 96 Non-Radioactive Cell Proliferation Assay (MTT), CellTiter 96 AQueous One Solution Cell Proliferation Assay (MTS) and CellTiter-Glo Luminescent Cell Viability (ATP) kits were purchased from Promega (Madison, WI). Protein concentration was measured using Micro BCA protein assay kit (Pierce Biotechnology, Rockford, IL). EpiDerm Bioassays: The EpiDerm™ 3-Dimensional Skin Model was purchased from MatTek Corporation (Ashland, MA). […] Conditioned media were collected, the remaining cells were homogenized on ice in the presence of protease and phosphatase inhibitors, and the lysates were clarified by centrifugation. The media and cell lysates were snap frozen at −70° C. Proteins were resolved by gel electrophoresis and visualized in immunoblots with human-specific antibodies to inducible nitric oxide synthase (iNOS), S-nitrosocysteine, and superoxide dismutase 2 (all from Abcam, Cambridge, MA). […] Croton oil (a chemical irritant) was used as a control. The results are shown as percent difference in marker levels in tissues treated with the test articles and those treated with croton oil alone. (Table 1). […] This pattern of tandem upregulation of examined markers in concert with downregulation of PGE2 was unique for DEA and was not observed with any other test article.

Balb/c mice = assay: Hot plate test, hind limb response latency; assay type: in vivo; settings: 100% (neat) DEA topical to hind limb 5 minutes before test, 42° C., male mice; vs untreated control, p=0.03
Method: In vivo studies: Animal studies and all procedures were performed in compliance with the Animal Welfare Act Regulations (9 CFR 3) and the NIH guidelines for the care and use of laboratory animals at New Frontier Labs LLC, San Antonio, TX Both male and female Balb/c mice 8-10 weeks old weighing approximately 25 g were purchased from Taconic Farms (Hudson, NY). Animals were acclimatized for at least 72 hours after delivery. Prior to experiments the animals were randomized into treatment and control groups. For the assessment of nociceptive effect of DEA, only male mice were used (n=8 per group). The hot plate test was performed at a constant temperature of 42° C. as described in S. Hunskaar, et al., Eur. J. Pharmacol. 1985; 111(2):221-6, which is incorporated herein by reference. DEA was administered neat (100%) or diluted in ethanol (vehicle) to the hind limb. The treatments were administered 5 minutes prior to the heat test. The time between the heat exposure to the first incidence of animal licking the hind paw was measured with a stopwatch.
Statistical analysis: Statistical analysis was done using Student t statistic; p values <0.05 were considered significant. All samples/data were included in the analysis. Continuously distributed outcomes were summarized with the mean and standard deviation. […]

[3] = system: human plasmacytoid dendritic cells; assay: ATP release and signaling with PRR agonists in plasmacytoid dendritic cells; assay type: cell-based; settings: 0.5% DEA, 24 hours
Method: Cell proliferation and cytotoxicity assays: CellTiter 96 Non-Radioactive Cell Proliferation Assay (MTT), CellTiter 96 AQueous One Solution Cell Proliferation Assay (MTS) and CellTiter-Glo Luminescent Cell Viability (ATP) kits were purchased from Promega (Madison, WI). Protein concentration was measured using Micro BCA protein assay kit (Pierce Biotechnology, Rockford, IL).
Pathogen-associated molecular pattern receptor agonist studies: PRR agonist kits; human Toll-like receptor (TLR1-9; n=9 agonists), nucleotide oligomerization domain (NOD) NOD1/NOD2 (n=10 agonists, denoted n1, n2, . . . , n10) and dectin-1 (a single agonist) were purchased from InvivoGen, San Diego, CA Plasmacytoid human dendritic cells (MatTek Corporation, Ashland, MA) were diluted to 1.6×10^5 cells/mL and incubated with the agonists at the concentrations in the middle ranges recommended by the supplier in the absence of DEA or with 0.5% DEA for 24 hours. The levels of measured analytes were normalized to the numbers of viable cells.
The inventors of the present disclosure have shown that altered membrane protein function with a U-shaped dose response. At the concentration of 0.5% DEA increased membrane fluidity by 18% above the cholesterol control level. Physiological consequences of DEA membrane fluidizing activity were further investigated in human plasmacytoid dendritic cells, which express multiple PRRs including TLRs, NOD and dectin-1 receptors. […]
Human plasmacytoid dendritic cells (1.6×10^5/ml) were exposed to 20 different PRR agonists alone at the concentrations within physiological ranges of each agonist or in the presence of 0.5% DEA for 24 hours. The results are expressed as the ratios of secreted ATP from the cells treated with the PRR receptor agonists and DEA (treatment groups) to the levels of ATP secreted by the cells treated with the agonists alone (control groups). […] Extracellular levels were measured, and the results were expressed as the ratios of released ATP from the cells+receptor agonist+DEA to the ATP from the cells+receptor agonist alone.

PBMCs = assay: Membrane fluidity measurement (pyrenedecanoic acid excimer fluorescence); assay type: cell-based, human; settings: 0.5% DEA
Method: Isolation of human peripheral blood mononuclear cells: Fresh human peripheral blood mononuclear cells (PBMC) specimens were obtained from healthy volunteers. The blood was collected into BD Vacutainer CPT Cell Preparation Tubes (Beckton Dickinson, Franklin Lakes, NJ) and centrifuged at 1,500×g at room temperature and PBMCs were isolated according to supplier's protocol. Cell counts and viability assessment using trypan blue exclusion were measured using hemocytometer. Membrane fluidity measurements: Membrane fluidity was measured using Membrane Fluidity Kit (PN […], Marker Gene Technologies, Eugene, OR). […] The fluorescence of the excimer (excitation at 355 nm, emission at 460 nm) was corrected for the monomer (excitation at 355 nm, emission at 400 nm). The inventors of the present disclosure have shown that altered membrane protein function with a U-shaped dose response. […] Physiological consequences of DEA membrane fluidizing activity were further investigated in human plasmacytoid dendritic cells, which express multiple PRRs including TLRs, NOD and dectin-1 receptors. Human plasmacytoid dendritic cells were stimulated with the receptor agonists alone or in combination with 0.5% DEA.

SMILES | G-CSF, percentage of the control (EpiDerm tissues [1]) | GM-CSF, percentage of the control (EpiDerm tissues [1]) | IL-1ra, percentage of the control (EpiDerm tissues [1]) | IL-10, percentage of the control (EpiDerm tissues [1]) | IL-13, percentage of the control (EpiDerm tissues [1]) | Leptin, percentage of the control (EpiDerm tissues [1]) | PGE2, percentage of the control (EpiDerm tissues [1]) | IL-4, percentage of the control (EpiDerm tissues [1]; 25% DEA) | effect on pro-inflammatory markers among 57 examined cytokines, chemokines and growth factors (EpiDerm tissues [1]; 25% DEA, 0.1% croton oil) | foci of enhanced cholera toxin B subunit fluorescence on plasma membranes (human PBMCs) | tissue integrity as evaluated by microscopic inspection (EpiDerm tissues [2]) | croton oil irritant toxicity in proliferation and viability assays (EpiDerm tissues [2]; 24 hours) | decrease of heat sensitivity (hot plate response latency) (Balb/c mice) | effect on ATP signaling with NOD receptor ligands n9 and n10 [3] | cellular signaling from all examined PRR ([3]; TLR, NOD, dectin-1 agonists) | ratio of released ATP, cells+receptor agonist+DEA to cells+receptor agonist alone ([3]; all PRR agonists except NOD ligands n9 and n10 (FIG. 1)) | increase of membrane fluidity above the cholesterol control level (PBMCs)
CCOc1ccc(C=O)cc1 [4-ethoxybenzaldehyde] | 340% | −26% | 34% | 471% | 34% | 39% | 4% | 80% |  |  |  |  |  |  |  |  | 
O=C(O)CCCCCCCC(=O)O [Azelaic acid, azelaic acid] | −100% | −16% | 18% | 152% | −4% | 41% | −1% | 40% |  |  |  |  |  |  |  |  | 
CCOC(=O)CCCCCCCC(=O)OCC [DEA, diethyl azelate] | 561% | 280% | 33% | 200% | 112% | 51% |  | 600% | downregulated most of the pro-inflammatory markers | no foci of enhanced fluorescence were detectable | protected tissue integrity | nullified croton oil irritant toxicity | 33% | no apparent effect | downregulated cellular signaling from all examined PRR | < 1 | 18%
COc1cccc2c1C(=O)c1c(O)c3c(c(O)c1C2=O)C[C@@](O)(C(=O)CO)C[C@@H]3O[C@H]1C[C@H](N)[C@H](O)[C@H](C)O1 [Doxorubicin, doxorubicin] | 0% | −3% | 15% | 214% | −38% | 116% | −2% | 80% |  |  |  |  |  |  |  |  | 
CC1=C(/C=C/C(C)=C/C=C/C(C)=C/C(=O)O)C(C)(C)CCC1 [Retinoic acid, all-trans retinoic acid] | 360% | −39% | 20% | 369% | −19% | 36% | 4% | 100% |  |  |  |  |  |  |  |  | 
O=C(O)c1ccccc1O [Salicylic acid, salicylic acid] | 640% | −7% | 15% | 257% | −46% | 202% | 5% | 40% |  |  |  |  |  |  |  |  | 
